Tests used:
[1] = in the human body; cited from earlier work
[2] = system: Kunming (KM) mice; test: Mouse light-dark transition experiment (Experiment 2); format: in vivo
Experimental: 2.1 Experimental animals: Kunming (KM) mice, male, 24˜26 g of body weight, secondary, are provided by the Experimental Animal Science Department of Capital Medical University, Beijing.
2.2 Experimental pharmaceuticals: The pharmaceutical of Embodiment 4 is provided by Beijing Wonner Biotech. Ltd. Co., and Diazepam is the product of Tianjin Jinhuei Amino Acid Co. Ltd.
2.3 Experimental equipment: Self-made light-dark transition box.
2.4 Dose designs: 1. High dose of Embodiment 4 (80 mg/kg/d); 2. middle dose of Embodiment 4 (40 mg/kg/d); and 3. low dose of Embodiment 4 (20 mg/kg/d).
2.5.1 Group division and administration of drug: The mice are grouped randomly as 5 groups, and 10 mice are in each group. 1. High dose of Embodiment 4 (80 mg/kg); 2. middle dose of Embodiment 4 (40 mg/kg); 3. low dose of Embodiment 4 (20 mg/kg); 4. […]
(§1) Mouse light-dark transition test: The dark chamber occupies one third of the light-dark transition chamber (44 cm×21 cm×21 cm), and the top is capped. […] The times that the mouse enters into the dark chamber and returns to the light chamber within 10 minutes are determined, and the times thereof are the index for evaluating the anti-anxiety function of the drugs.
2.5.3 Statistic calculation: The experimental data are represented as X±SD, and the experimental result is calculated as one-way ANOVA by SPSS 11.5 statistic software.

[3] = system: Kunming (KM) mice; test: Mouse light-dark transition experiment (Experiment 1); format: in vivo
Description: 1.1 Experimental animals: Kunming (KM) mice, male, 24˜26 g of body weight, secondary, are provided by the Experimental Animal Science Department of Capital Medical University, Beijing.
1.2 Experimental pharmaceuticals: The pharmaceutical of Embodiment 1 is provided by Beijing Wonner Biotech. Ltd. Co., and Diazepam is the product of Tianjin Jinhuei Amino Acid Co. Ltd.
1.3 Experimental equipment: Self-made light-dark transition box.
1.5.1 Group division and administration of drug: The mice are grouped randomly as 5 groups, and 10 mice are in each group. 1. High dose of Embodiment 1 (80 mg/kg); 2. middle dose of Embodiment 1 (40 mg/kg); 3. low dose of Embodiment 1 (20 mg/kg); 4. Diazepam (2.5 mg/kg); and 5. physiological saline (normal saline, NS). […]
as §1
1.5.3 Statistic calculation: The experimental data are represented as X±SD, and the experimental result is calculated as one-way analysis of variance (one-way ANOVA) by SPSS 11.5 statistic software.

[4] = 2.5 mg/kg, fed into the stomach once daily for 7 days, test 1 hour after last administration, within 10 minutes, X±SD, 10 mice

Structure (SMILES) | Efficiency of conversion of glycyrrhizic acid to glycyrrhetinic acid [1] [%] | Times of passing from dark chamber to light chamber [2, 4] | Effect on the times that the mouse passes from the dark chamber to the light chamber, in words ([2]; compared with normal saline, high, middle and low doses of Embodiment 4, Diazepam 2.5 mg/kg) | Times of passing from dark chamber to light chamber [3, 4] | Effect on the times that the mouse passes from the dark chamber to the light chamber, in words ([3]; compared with physiological saline, high, middle and low doses of Embodiment 1, Diazepam 2.5 mg/kg)
CC1(C)[C@@H](O[C@H]2O[C@H](C(=O)O)[C@@H](O)[C@H](O)[C@H]2O[C@@H]2O[C@H](C(=O)O)[C@@H](O)[C@H](O)[C@H]2O)CC[C@]2(C)[C@H]3C(=O)C=C4[C@@H]5C[C@@](C)(C(=O)O)CC[C@]5(C)CC[C@@]4(C)[C@]3(C)CC[C@@H]12 [glycyrrhizic acid] | ~100 | – | – | – | –
CN1C(=O)CN=C(c2ccccc2)c2cc(Cl)ccc21 [Diazepam] | – | 11.7 ± 4.47 | significantly increase | 11.3 ± 4.54 | significantly increase

Source: patent US20170274032A1, “PHARMACEUTICAL COMPOSITIONS FOR TREATING ANXIETY” (Beijing Wonner Biotech. Ltd. Co., priority 2007, published 2017)
